From patent US8633005B2, “Isocyclomaltooligosaccharide(s), isocyclomaltooligosaccharide-forming enzyme, their preparation and uses” (Hayashibara Co., Ltd., priority 2004, dated 2014)

Tests used:
[1] = Clathrating action of ICM (amount of compound clathrated, gas-chromatography); format: physicochemical; conditions: 3-folds molar amount
Description: ICG5 used in Experiment 15, was dissolved in deionized water to make into an aqueous solution containing 20% (w/v) of ICG5. Twenty milliliters of the aqueous solution was admixed with 3-folds amount, on a molar basis to ICG5, of either of four kinds of short chain alcohols, i.e., methanol, ethanol, propanol, and butanol; four kinds of short chain fatty acids, i.e., acetic acid, propionic acid, n-butyric acid, and n-valeic acid; and four kinds of aromatic compounds, i.e., benzyl alcohol, phenethyl alcohol, 4-phenyl-1-propanol, and o-cresol; and then stirred the mixture to homogeneity for allowing ICG5 to clathrate the compound. Successively, each solution was filtrated, and the resulting filtrate was freeze-dried to remove unclathrated compound. In order to measure the amount of compound clathrated in the freeze-dried product, the amount of each compound in each freeze-dried product was determined by gas-chromatography. Alpha-CD was used as a control and subjected to the similar test.

mice = assay: Acute toxicity test, oral, mice; format: in vivo
Source text: By using mice, ICG5 used in Experiment 15 was orally administrated to the mice for its acute toxicity test. […] Though not so accurate, the value of LD50 of ICG5 was 5 g/kg-mouse weight or higher.

Source text for pancreas α-amylase: 43, 23-29 (1990), the digestibility of ICM by salivary α-amylase, artificial gastric juice, pancreas amylase, and small intestinal enzymes were investigated using ICG5, used in Experiment 15. […] In Table 18, the digestion (%) means a value calculated by the formula: Digestion (%)=(The amount of reducing saccharides/The amount of the total saccharides)×100 , in respective reaction described above.

OCC1OC2OC3C(CO)OC(OC4C(CO)OC(OC5C(CO)OC(OCC6OC(OC1C(O)C2O)C(O)C(O)C6O)C(O)C5O)C(O)C4O)C(O)C3O [ICG5, cyclo{→6)-α-D-glucopyranosyl-(1→4)-α-D-glucopyranosyl-(1→4)-α-D-glucopyranosyl-(1→4)-.α-D-glucopyranosyl-(1→4)α-D-glucopyranosyl-(1→}]
Amount of compound clathrated ([1]; objective compound: 4-Phenyl 1-propanol (aromatic compound)): 225.2 mg/g-freeze-dried product
Amount of compound clathrated ([1]; objective compound: Acetic acid (short chain fatty acid)): 82.4 mg/g-freeze-dried product
Amount of compound clathrated ([1]; objective compound: Benzyl alcohol (aromatic compound)): 61.9 mg/g-freeze-dried product
Amount of compound clathrated ([1]; objective compound: Butanol (short chain alcohol)): 82.7 mg/g-freeze-dried product
Amount of compound clathrated ([1]; objective compound: Ethanol (short chain alcohol)): 57.6 mg/g-freeze-dried product
Amount of compound clathrated ([1]; objective compound: Methanol (short chain alcohol)): 33.5 mg/g-freeze-dried product
Amount of compound clathrated ([1]; objective compound: Phenethyl alcohol (aromatic compound)): 10.0 mg/g-freeze-dried product
Amount of compound clathrated ([1]; objective compound: Propanol (short chain alcohol)): 69.2 mg/g-freeze-dried product
Amount of compound clathrated ([1]; objective compound: Propionic acid (short chain fatty acid)): 91.4 mg/g-freeze-dried product
Amount of compound clathrated ([1]; objective compound: n-Butyric acid (short chain fatty acid)): 69.9 mg/g-freeze-dried product
Amount of compound clathrated ([1]; objective compound: n-Valeic acid (short chain fatty acid)): 48.3 mg/g-freeze-dried product
Amount of compound clathrated ([1]; objective compound: o-Cresol (aromatic compound)): 151.5 mg/g-freeze-dried product
Mortality (mice; oral, highest possible dose): no mouse died
LD50 (mice; orally administrated, though not so accurate): ≥ 5 g/kg-mouse weight
Digestion (pancreas α-amylase): 0%
